Reference: PMC13205134, “Design, synthesis, and biological properties exhibited by 1,2,3-triazole based Grp94-selective inhibitors” (European journal of medicinal chemistry, 2025)
Values joined by “and” are separate entries in the source; they are usually repeats but may differ in a detail not shown here. Equal values may be shown once. “Also recorded” adds a separate entry of the source.

Columns and labels:
[1] = test system: Hsp70; test: Western blot of Hsp70 in MDA-MB-231 cells; assay type: cell-based; conditions: 24 h
Protocol: (§1) MDA-MB-231 cells were grown in a water jacketed incubator at 37 °C with 5 % CO2. Cells were cultured in DMEM (Corning) media supplemented with 10 % heat-inactivated fetal bovine serum (FBS, Gibco, 10438-026) and 1 % Penicillin-Streptomycin (VWR, K952-100 mL). Cells were seeded in clear, flat bottom 6-well plates with each well containing 500,000 cells and grown to 80 % confluency. The medium was replaced with fresh DMEM that contains compounds of interest at the indicated concentrations or vehicle control, and cells were incubated for 24 h. Following treatment, MDA-MB-231 cells were then lysed in RIPA buffer supplemented with protease and phosphatase inhibitors. Protein concentration in lysates were determined by BCA assay (Thermo). Equal amounts of protein were separated by SDS-PAGE on 10 % polyacrylamide gels and […] onto nitrocellulose membranes. Transfer efficiency and total protein loading were confirmed by Ponceau staining. Membranes were blocked with 6 % nonfat dry milk and probed with primary antibodies against GAPDH (Cell Signaling, 14C10), Hsp70 (Cell Signaling, C92F3A), Akt, and Integrin α2 (Cell Signaling, D8V7H) each diluted 1:1000. Secondary antibodies were also used at 1:1000 (Southern Biotech), immunoblots were developed using ECL substrate (Amersham, 45-000-999) and visualized on a ChemiDoc Imaging System (BioRad).

[2] = test system: Akt; test: Western blot of Akt in MDA-MB-231 cells; assay type: cell-based; conditions: 24 h
Protocol: as §1

[3] = test system: integrin α2; test: Western blot of integrin α2 in MDA-MB-231 cells; assay type: cell-based; conditions: 5 μM, 24 h
Protocol: as §1

[4] = test system: wild-type myocilin; test: Cellular assay for wild-type myocilin in dox-inducible trabecular meshwork (TM-1) cells; assay type: cell-based, human; conditions: higher dose (30 μM), 24 h, Western blot
Protocol: (§2) Immortalized human trabecular meshwork (TM-1) cells stably transduced with WT or Y437H myocilin (50 MOI) were grown in low-glucose (1 g/L) Dulbecco’s modified Eagle medium with glutamine (DMEM, Gibco) supplemented with 10 % FBS (Hyclone), 1–2 % PS (Gibco) at 37 °C, and 200 μg/mL hygromycin (Corning), TM-1 cells were seeded in 6 well plates at equivalent cell counts/replicate. The following day, myocilin expression was induced by treating the cells with 2 μg/mL doxycycline (dox, Thermo-Scientific) in serum-free media. After 48 h, media was replaced with serum-free media containing 2 μg/mL dox to induce myocilin expression and 47 at the designated concentration for an additional 24 h.
Cells were lysed using lysis buffer (100 mM Tris-HCl pH 7.4, 3 mM EGTA, 5 mM MgCl2, 0.5 % Triton X 100) supplemented with 0.6 mM phenylmethylsulfonyl fluoride, and a 1:100 v/v protease inhibitor cocktail containing complete EDTA-free protease inhibitor (Roche) and 1 % (v/v) phosphatase inhibitor cocktails II and III (Sigma-Aldrich). Cells lysed by rocking in lysis buffer for ~2 h at 4 °C. […] Protein concentration of the detergent-soluble fractions was determined by BCA assay (Pierce).
The detergent-soluble samples were prepared in equal protein concentration in 5X Laemmli buffer containing 5–10 % (v/v) β-mercaptoethanol. […] Quantification of protein bands on Western blots was performed using ImageLab (Bio-Rad). […]

[5] = test system: Grp94; test: Competitive binding fluorescence polarization (FP) assay, Grp94; conditions: for Polarization Read 1 / Polarization Read 2 / Polarization Read 3: replicate wells, protein not given
Protocol: The Fluorescence Polarization Assay (FP) was performed in 96-well flat-bottom plates (Santa Cruz Biotechnology) with a final volume of 100 μL per well. […] Each well contained 10 nM of Hsp90α or Grp94 (Enzo Biochem Inc.) and 6 nM of FITC-GDA (fluorescent tracer, stock in DMSO). Compounds were tested in triplicate at final concentrations of 100 μM, 10 μM, 1 μM, 0.1 μM and 0.01 μM with each final concentration containing 1 % DMSO. Each plate included control wells containing: (i) buffer only (background polarization), (ii) protein plus tracer (maximum polarization control), and (iii) tracer only (minimum polarization control). Plates were incubated on a rocker at 4 °C for 24 h.

[6] = test system: Y437H myocilin; test: Cellular assay for mutant myocilin in dox-inducible trabecular meshwork (TM-1) cells; assay type: cell-based, human
Protocol: as §2
Cells were lysed using lysis buffer (100 mM Tris-HCl pH 7.4, 3 mM EGTA, 5 mM MgCl2, 0.5 % Triton X 100) supplemented with 0.6 mM phenylmethylsulfonyl fluoride, and a 1:100 v/v protease inhibitor cocktail containing complete EDTA-free protease inhibitor (Roche) and 1 % (v/v) phosphatase inhibitor cocktails II and III (Sigma-Aldrich). Cells lysed by rocking in lysis buffer for ~2 h at 4 °C. Detergent-soluble and detergent insoluble fractions were separated by centrifugation. Protein concentration of the detergent-soluble fractions was determined by BCA assay (Pierce).
The detergent-soluble samples were prepared in equal protein concentration in 5X Laemmli buffer containing 5–10 % (v/v) β-mercaptoethanol. The samples were heated at 95 °C for 5 min and loaded on 12 % Tris-glycine gels. The gels were then transferred to methanol-activated PVDF membranes using the Trans-blot Turbo transfer system (Bio-Rad). […] Quantification of protein bands on Western blots was performed using ImageLab (Bio-Rad). Measurements of band density were normalized to actin loading control within each experiment, and the statistical significance was determined with one-way ANOVA with GraphPad Prism.

[7] = molecular target: Hsp90α (Homo sapiens, UniProt P07900); test: Competitive binding fluorescence polarization (FP) assay, Hsp90α; conditions: FITC-GDA tracer, mean of triplicates ± SD, read-out: Apparent Kd Hsp90α
Protocol: The Fluorescence Polarization Assay (FP) was performed in 96-well flat-bottom plates (Santa Cruz Biotechnology) with a final volume of 100 μL per well. The assay buffer consisted of 20 mM HEPES, 50 mM KCl, 10.5 mM MgCl2, 20 mM Na2MoO4, 0.01 % NP-40 detergent (NP-40), and pH 7.3 with fresh 2 mM dithiothreitol (DTT) and 0.1 mg/mL bovine γ-globulin (BGG). Each well contained 10 nM of Hsp90α or Grp94 (Enzo Biochem Inc.) and 6 nM of FITC-GDA (fluorescent tracer, stock in DMSO). Compounds were tested in triplicate at final concentrations of 100 μM, 10 μM, 1 μM, 0.1 μM and 0.01 μM with each final concentration containing 1 % DMSO. Each plate included control wells containing: (i) buffer only (background polarization), (ii) protein plus tracer (maximum polarization control), and (iii) tracer only (minimum polarization control). Plates were incubated on a rocker at 4 °C for 24 h. Fluorescence polarization (mP units) was measured at 37 °C using excitation and emission wavelengths of 485 and 528 nm, respectively. Apparent Kd values were determined via calculations from the polarization data obtained at which the tracer was displaced by 50 % by the compounds of interest.
[I50] = concentration of free inhibitor at 50% inhibition, [L50] = concentration of free fluorescence labeled ligand molecule at 50% inhibition, [P0] = concentration of free protein at 0% inhibition, K = dissociation constant of the protein−ligand complex.^4

Polarization Read 1 ([5]; 0.01 µM): 298 and 289 and 285 | Polarization Read 2 ([5]; 0.01 µM): 278 and 288 and 270 | Polarization Read 3 ([5]; 0.01 µM): 275 and 284 and 279 | Polarization Read 1 ([5]; 0.1 µM): 247 and 250 and 234 | Polarization Read 2 ([5]; 0.1 µM): 234 and 231 and 237 | Polarization Read 3 ([5]; 0.1 µM): 220 (2×) and 210 | Polarization Read 1 ([5]; 1 µM): 189 and 179 and 182 | Polarization Read 2 ([5]; 1 µM): 178 and 177 and 180 | Polarization Read 3 ([5]; 1 µM): 185 (2×) and 186 | Polarization Read 1 ([5]; 10 µM): 170 and 191 and 174 | Polarization Read 2 ([5]; 10 µM): 172 and 178 and 176 | Polarization Read 3 ([5]; 10 µM): 169 and 185 and 177 | improvement in affinity compared to BnIm ([5]; Grp94 affinity, relative to first generation BnIm): 15 fold | improvement in affinity compared to BnPh ([5]; Grp94 affinity, relative to second generation BnPh): 8 fold | increase in affinity on extension of ethyl to propyl group ([5]; Grp94 affinity, relative to the 2-ethyl analog): 10 fold | Fold selective for Grp94 ([5]; selectivity over Hsp90α, n.s. = non-selective): 121 fold | Kd [7]: 9.17 ± 0.86 µM
Compound: CCCc1ccccc1Cc1cnnn1CCc1c(Cl)c(O)cc(O)c1C(=O)OC [Compound 47, methyl 3-chloro-4,6-dihydroxy-2-(2-(5-(2-propylbenzyl)-1H-1,2,3-triazol-1-yl)ethyl)benzoate]
Hsp70 expression [1]: does not induce Hsp70 expression | effect on Akt (cytosolic Hsp90 client protein) [2]: did not affect Akt | levels of Integrin α2 [3]: induced the degradation of integrin α2; also recorded: reduced the levels of Integrin α2 | wild-type myocilin expression [4]: statistically significant decrease | Y437H-mutant myocilin levels ([6]; 3 μM, 24 h, TM-1 cells, Western blot): statistically significant reduction | reduction of levels of intracellular myocilin ([6]; 30 μM, 24 h, TM-1 cells Y437H myocilin, Western blot): ≥ 50% | intracellular accumulation of mutant myocilin ([6]; human trabecular meshwork cells, concentration not given): reduced the intracellular accumulation of mutant myocilin
